# Data taken from ChEMBL document CHEMBL1201862, “PubChem BioAssay data set” (2004).
#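 Test compounds were applied to cells in 96-well plates for 48 hours at 5 doses. At the GI50, growth is halved.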 Active and inactive are the calls of the source. Rule as the data show it: active = GI50 up to about 1.1 µM and inactive = higher.
# Key:
# Assay in all cases: inhibition of tumour cell growth, NCI panel, 48 h
# ACHN = system: ACHN
# HL-60 = system: HL-60
# Malme-3M = system: Malme-3M
# OVCAR-8 = system: OVCAR-8
# SF-268 = system: SF-268
# SN12C = system: SN12C
# XF498 = system: XF498
# LXFL 529 = system: LXFL 529
# OVCAR-3 = system: OVCAR-3
# SNB-19 = system: SNB-19
# SNB-78 = system: SNB-78
# K562 = system: K562
# NCI-H460 = system: NCI-H460
# SW-620 = system: SW-620
# EKVX = system: EKVX
# CCRF-CEM = system: CCRF-CEM
# SK-OV-3 = system: SK-OV-3
# CAKI-1 = system: CAKI-1
# SNB-75 = system: SNB-75
# SK-MEL-5 = system: SK-MEL-5
# KM12 = system: KM12
# UACC-257 = system: UACC-257
# M14 = system: M14
# LOX IMVI = system: LOX IMVI
# TK-10 = system: TK-10
# HOP-92 = system: HOP-92
# HCT-116 = system: HCT-116
# KM-20L2 = system: KM-20L2
# COLO 205 = system: COLO 205
# SF-295 = system: SF-295
# NCI-H522 = system: NCI-H522
# HCC 2998 = system: HCC 2998
# UO-31 = system: UO-31
# SK-MEL-2 = system: SK-MEL-2
# 786-0 = system: 786-0
# NCI-H23 = system: NCI-H23
# MOLT-4 = system: MOLT-4
# HCT-15 = system: HCT-15
# SR = system: SR
# IGROV-1 = system: IGROV-1
# A498 = system: A498
# HOP-62 = system: HOP-62
# DLD-1 = system: DLD-1
# RPMI-8226 = system: RPMI-8226
# RXF 393 = system: RXF 393
# M19-MEL = system: M19-MEL
# OVCAR-5 = system: OVCAR-5
# U-251 = system: U-251
# HOP-18 = system: HOP-18
# DMS-273 = system: DMS-273
# DMS-114 = system: DMS-114
# NCI-H226 = system: NCI-H226
# HT-29 = system: HT-29
# UACC-62 = system: UACC-62
# A549 = system: A549
# SK-MEL-28 = system: SK-MEL-28
# OVCAR-4 = system: OVCAR-4
# SF-539 = system: SF-539
structure (smiles),measurement,setting,value
CNC(SC)=C1C(=O)OC(C)(C)OC1=O,GI50,ACHN,> 100 µM (inactive)
same,GI50,HL-60,> 100 µM (inactive)
same,GI50,Malme-3M,> 100 µM (inactive)
same,GI50,OVCAR-8,> 100 µM (inactive)
same,GI50,SF-268,> 100 µM (inactive)
same,GI50,SN12C,> 100 µM (inactive)
same,GI50,XF498,> 100 µM (inactive)
same,GI50,LXFL 529,> 100 µM (inactive)
same,GI50,OVCAR-3,> 100 µM (inactive)
same,GI50,SNB-19,> 100 µM (inactive)
same,GI50,SNB-78,36.4 µM (inactive)
same,GI50,K562,> 100 µM (inactive)
same,GI50,NCI-H460,50 µM (inactive)
same,GI50,SW-620,20 µM (inactive)
same,GI50,EKVX,> 100 µM (inactive)
same,GI50,CCRF-CEM,> 100 µM (inactive)
same,GI50,SK-OV-3,> 100 µM (inactive)
same,GI50,CAKI-1,> 100 µM (inactive)
same,GI50,SNB-75,> 100 µM (inactive)
same,GI50,SK-MEL-5,> 100 µM (inactive)
same,GI50,KM12,> 100 µM (inactive)
same,GI50,UACC-257,> 100 µM (inactive)
same,GI50,M14,> 100 µM (inactive)
same,GI50,LOX IMVI,73.3 µM (inactive)
same,GI50,TK-10,> 100 µM (inactive)
same,GI50,HOP-92,> 100 µM (inactive)
same,GI50,HCT-116,58.2 µM (inactive)
same,GI50,KM-20L2,> 100 µM (inactive)
same,GI50,COLO 205,45.8 µM (inactive)
same,GI50,SF-295,> 100 µM (inactive)
same,GI50,NCI-H522,> 100 µM (inactive)
same,GI50,HCC 2998,> 100 µM (inactive)
same,GI50,UO-31,> 100 µM (inactive)
same,GI50,SK-MEL-2,37.1 µM (inactive)
same,GI50,786-0,> 100 µM (inactive)
same,GI50,NCI-H23,> 100 µM (inactive)
same,GI50,MOLT-4,> 100 µM (inactive)
same,GI50,HCT-15,19.8 µM
same,GI50,SR,> 100 µM (inactive)
same,GI50,IGROV-1,> 100 µM (inactive)
same,GI50,A498,> 100 µM (inactive)
same,GI50,HOP-62,> 100 µM (inactive)
same,GI50,DLD-1,22.2 µM (inactive)
same,GI50,RPMI-8226,> 100 µM (inactive)
same,GI50,RXF 393,68.9 µM (inactive)
same,GI50,M19-MEL,> 100 µM (inactive)
same,GI50,OVCAR-5,> 100 µM (inactive)
same,GI50,U-251,18.1 µM (inactive)
same,GI50,HOP-18,> 100 µM (inactive)
same,GI50,DMS-273,0.499 µM (active)
same,GI50,DMS-114,34.8 µM (inactive)
same,GI50,NCI-H226,> 100 µM (inactive)
same,GI50,HT-29,> 100 µM (inactive)
same,GI50,UACC-62,> 100 µM (inactive)
same,GI50,A549,> 100 µM (inactive)
same,GI50,SK-MEL-28,> 100 µM (inactive)
CCN1C[C@]2(C)CC[C@H](OC)C34C1C([C@H](OC(C)=O)[C@@H]32)[C@@]1(OC)C[C@H](OC)[C@H]2C[C@@H]4[C@@H]1[C@H]2O,GI50,ACHN,> 100 µM (inactive)
same,GI50,HL-60,> 100 µM (inactive)
same,GI50,Malme-3M,> 100 µM (inactive)
same,GI50,OVCAR-8,> 100 µM (inactive)
same,GI50,SF-268,> 100 µM (inactive)
same,GI50,OVCAR-4,> 100 µM (inactive)
same,GI50,SN12C,> 100 µM (inactive)
same,GI50,XF498,> 100 µM (inactive)
same,GI50,LXFL 529,> 100 µM (inactive)
same,GI50,SNB-19,> 100 µM (inactive)
same,GI50,SNB-78,> 100 µM (inactive)
same,GI50,K562,92.5 µM (inactive)
same,GI50,NCI-H460,> 100 µM (inactive)
same,GI50,SW-620,54.2 µM (inactive)
same,GI50,EKVX,> 100 µM (inactive)
same,GI50,CCRF-CEM,> 100 µM (inactive)
same,GI50,SK-OV-3,> 100 µM (inactive)
same,GI50,CAKI-1,> 100 µM (inactive)
same,GI50,SNB-75,> 100 µM (inactive)
same,GI50,SK-MEL-5,> 100 µM (inactive)
same,GI50,KM12,> 100 µM (inactive)
same,GI50,UACC-257,> 100 µM (inactive)
same,GI50,M14,> 100 µM (inactive)
same,GI50,LOX IMVI,> 100 µM (inactive)
same,GI50,TK-10,> 100 µM (inactive)
same,GI50,HOP-92,> 100 µM (inactive)
same,GI50,HCT-116,> 100 µM (inactive)
same,GI50,KM-20L2,> 100 µM (inactive)
same,GI50,COLO 205,55.5 µM (inactive)
same,GI50,SF-295,> 100 µM (inactive)
same,GI50,NCI-H522,> 100 µM (inactive)
same,GI50,HCC 2998,> 100 µM (inactive)
same,GI50,UO-31,> 100 µM (inactive)
same,GI50,SK-MEL-2,> 100 µM (inactive)
same,GI50,786-0,> 100 µM (inactive)
same,GI50,NCI-H23,> 100 µM (inactive)
same,GI50,MOLT-4,> 100 µM (inactive)
same,GI50,HCT-15,87.5 µM
same,GI50,IGROV-1,> 100 µM (inactive)
same,GI50,A498,> 100 µM (inactive)
same,GI50,HOP-62,> 100 µM (inactive)
same,GI50,DLD-1,> 100 µM (inactive)
same,GI50,RPMI-8226,> 100 µM (inactive)
same,GI50,SF-539,> 100 µM (inactive)
same,GI50,RXF 393,> 100 µM (inactive)
same,GI50,M19-MEL,> 100 µM (inactive)
same,GI50,OVCAR-5,> 100 µM (inactive)
same,GI50,U-251,> 100 µM (inactive)
same,GI50,HOP-18,> 100 µM (inactive)
same,GI50,DMS-273,> 100 µM (inactive)
same,GI50,DMS-114,82.4 µM (inactive)
same,GI50,NCI-H226,> 100 µM (inactive)
same,GI50,HT-29,> 100 µM (inactive)
same,GI50,UACC-62,> 100 µM (inactive)
same,GI50,A549,> 100 µM (inactive)
same,GI50,SK-MEL-28,> 100 µM (inactive)
